Measurements from patent US20180207177A1, “TREATMENT OF TRIPLE NEGATIVE BREAST CANCER UTILIZING ANDROST-5-ENE-3b,17b-DIOL (b-AED), ANDROST-5-ENE-3b,7b,17b-TRIOL (b-AET) AND ESTRADIOL (E2)” (Government of the United States as Represented by the …, priority 2017, published 2018).

Assays:
293T cells = assay: Biological function (phenotype, mobile cells) in 293T cells; format: cell-based, human
Method: A non-toxic vehicle for administration of androstene hormones according to embodiments of the present invention was prepared from a first solution and a second solution. The first solution, comprising liposomal formulation, was placed in PEG 300 to a concentration of 5% and heated in a sonicating water bath to about 45° C. The second solution, comprising a selected hormone (one or more of 5Δ-androsten-3β, 17α-diol, 5Δ-androsten-3β, 17β-diol, or 5Δ-androsten-3β,7β,17β-triol), was placed in PEG 300 and heated in a sonicating water bath to about 45° C. The first and second solutions were then combine and stirred until dissolved.
Biological function was tested in 293T cells, which is a human embryonic cell line transformed with Large T antigen […] SV40. This hypotriploid (polyploid) cell line is particularly useful in such transformation studies and has very distinct phenotypes when grown. All androstene hormone treatment applications were at concentrations of 25 μM.

[1] = tested on: MDA-MB-231 breast cancer cell; assay: Cell death in MDA-MB-231 breast cancer cell cultures; format: cell-based; conditions: 25 μM β-AED, 25 μM β-AET, 5 nM E2; PEG 300/LIPOFECTAMINE vehicle
Method: (§1) Hormone dependent, noninvasive, epithelial phenotype (ER/PR positive MCF-7 breast cancer cells) and hormone independent, invasive, mesenchymal phenotype (ER/PR negative MDA-MB-231 breast cancer cell) cell suspensions were acquired and prepared in complete medium (DMEM/F12, 10% FBS, 1% penicillin/streptomycin (Gibco)). Cellular concentration was adjusted to 2×10^5 cells/mL.
(§2) Androstene hormone solutions according to embodiments of the present invention were prepared from a first solution and a second solution. For the first solution, 3.0 mg of β-AED or β-AET was added to warm PEG 300 to prepare 50 mM stock. For the second solution, 10 μL of LIPOFECTAMINE (3:1 DOSPA:DOPE) was introduced to 100 μL of PEG 300, mixed, and incubated in a water bath at 42° C. for 30 min. The first and second solutions were then mixed in a sonicator water bath at 42° C. for 1 hr. The final concentration was 50 mM β-AED (or AET, as used).
(§3) A β-estradiol solution was also prepared by adding 2.7 mg of β-estradiol to 200 μL warmed PEG 300 with LIPOFECTAMINE and then further diluted 1:1000 with PEG-300. The final concentration was 50 μM.
A diluted β-AED (or β-AET) solution was prepared with complete medium at a final concentration of 50 μM (1:1000 dilute of 50 mM). Likewise, a diluted β-E2 solution was prepared with complete medium at a final concentration of 10 nM (1:5000 dilute of 50 μM). […]

[2] = tested on: MCF-7 breast cancer cells; assay: Cell death and growth in MCF-7 breast cancer cell cultures; format: cell-based; conditions: for MCF7 Cell Death Amount: 25 μM β-AED, 25 μM β-AET, PEG 300/LIPOFECTAMINE vehicle; for cell growth / cell density (microscopic photograph): compared to vehicle FIG. 14
Method: as §1, §2, §3
A diluted β-AED (or β-AET) solution was prepared with complete medium at a final concentration of 50 μM (1:1000 dilute of 50 mM). Likewise, a diluted β-E2 solution was prepared with complete medium at a final concentration of 10 nM (1:5000 dilute of 50 μM).
Using a 24-well plate, mixtures of 0.5 mL of cells per well with 0.5 mL of medium diluted hormone vehicle. Cell cultures were maintained at 90% humidity, 7% CO2, and 37° C.

[3] = vehicle PEG 300, androstene hormone 25 μM
[4] = MCF-7 grown for 5 days, 25 μM androstene, 5 nM E2

Compound	cell islands (photograph) (293T cells; [3])	mobile cells / cell processes (photograph) (293T cells; [3])	mobile cells / mobile elements and processes (photograph) (293T cells; vehicle PEG 300 and LIPOFECTAMINE, β-AED 25 μM, E2 5 nM)	MDA-MB-231 Cell Death Amount [1]	MCF7 Cell Death Amount ([2]; 5 nM E2)	particles / cell bodies produced by cells in response to treatment [2, 4]	cell growth / cell density (microscopic photograph) [2, 4]	Additional Observation ([2]; cell line not given, particles shown for MCF-7 in FIG. 15)
C[C@]12CC[C@H]3[C@@H](CC=C4C[C@@H](O)CC[C@@]43C)[C@@H]1CC[C@@H]2O [β-AED, androst-5-ene-3β,17β-diol]	cell islands are larger	significant reduction in mobile cells	drastic decrease in, or morphological change, in mobile elements	Not observed	Not observed	small particles	not as heath and there are areas of decreased density	Cell particles observed
C[C@]12CC[C@H]3[C@@H]([C@@H](O)C=C4C[C@@H](O)CC[C@@]43C)[C@@H]1CC[C@@H]2O [β-AET, 5-androstene-3β,7β,17β-triol]	–	–	–	Not observed	Not observed	–	thick and similar to the cell growth of FIG. 14	–
